Where a SMILES comes first, the peptide text is derived from it. Bridges are numbered along the chain shown (N, C = ends).
Assays:
Rat α3β2 nAChR = biological target: T1, Rat α3β2 nAChR (Rattus norvegicus, UniProt P04757+P12390); assay: cell-based; format: cell-based
T1 construct: expressed in transfected cells; host or cells: Xenopus laevis oocytes, cRNA injected

[1] = biological target: Mouse CNS α-MII Site (putative α6β2* nAChRs); format: binding
Rat α6/α3β2β3 nAChR = biological target: T2, Rat α6/α3β2β3 nAChR (Rattus norvegicus, UniProt P04757+P12390+P43143); assay: cell-based; format: cell-based
T2 construct: amino acids 1 to 237 of the rat α6 subunit protein; amino acids 233 to 499 of the rat α3 subunit protein; expressed in transfected cells; host or cells: Xenopus laevis oocytes, cRNA injected (pT7TS/rα6α3 for the chimera)
T2 sequence (P43143 31-237 limits assumed): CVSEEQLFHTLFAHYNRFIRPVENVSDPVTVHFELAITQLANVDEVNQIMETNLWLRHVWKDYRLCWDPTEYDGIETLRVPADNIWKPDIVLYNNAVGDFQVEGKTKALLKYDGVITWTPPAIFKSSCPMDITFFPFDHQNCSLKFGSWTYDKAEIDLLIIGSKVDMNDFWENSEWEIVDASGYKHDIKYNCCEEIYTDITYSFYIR
T2 sequence (P04757 233-499 limits assumed): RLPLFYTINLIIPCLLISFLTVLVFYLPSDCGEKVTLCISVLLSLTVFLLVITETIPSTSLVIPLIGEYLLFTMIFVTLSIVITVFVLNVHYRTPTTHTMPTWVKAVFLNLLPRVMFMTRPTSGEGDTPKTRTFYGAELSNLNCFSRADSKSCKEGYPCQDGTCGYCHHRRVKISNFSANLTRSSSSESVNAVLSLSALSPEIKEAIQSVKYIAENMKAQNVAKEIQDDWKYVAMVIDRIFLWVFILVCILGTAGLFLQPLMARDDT
T2 sequence (P12390 25-500 limits assumed): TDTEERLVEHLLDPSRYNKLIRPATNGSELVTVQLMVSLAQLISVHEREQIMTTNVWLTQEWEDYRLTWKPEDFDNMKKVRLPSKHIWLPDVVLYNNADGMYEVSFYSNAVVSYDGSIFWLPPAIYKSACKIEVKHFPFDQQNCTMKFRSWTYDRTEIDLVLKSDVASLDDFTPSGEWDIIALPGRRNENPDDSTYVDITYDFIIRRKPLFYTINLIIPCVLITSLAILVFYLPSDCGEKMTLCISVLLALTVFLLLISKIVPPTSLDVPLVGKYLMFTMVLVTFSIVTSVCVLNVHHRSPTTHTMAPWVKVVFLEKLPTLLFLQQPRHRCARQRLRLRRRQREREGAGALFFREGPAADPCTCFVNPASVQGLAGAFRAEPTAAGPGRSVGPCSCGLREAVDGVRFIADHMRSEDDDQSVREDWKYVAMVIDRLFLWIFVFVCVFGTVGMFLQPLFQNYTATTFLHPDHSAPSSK

α4β2 nAChR = biological target: T3, α4β2 nAChR (Rattus norvegicus, UniProt P09483+P12390); format: cell-based
T3 construct: expressed in transfected cells; host or cells: Xenopus laevis oocytes, cRNA injected
T3 sequence (P09483 31-630 limits assumed): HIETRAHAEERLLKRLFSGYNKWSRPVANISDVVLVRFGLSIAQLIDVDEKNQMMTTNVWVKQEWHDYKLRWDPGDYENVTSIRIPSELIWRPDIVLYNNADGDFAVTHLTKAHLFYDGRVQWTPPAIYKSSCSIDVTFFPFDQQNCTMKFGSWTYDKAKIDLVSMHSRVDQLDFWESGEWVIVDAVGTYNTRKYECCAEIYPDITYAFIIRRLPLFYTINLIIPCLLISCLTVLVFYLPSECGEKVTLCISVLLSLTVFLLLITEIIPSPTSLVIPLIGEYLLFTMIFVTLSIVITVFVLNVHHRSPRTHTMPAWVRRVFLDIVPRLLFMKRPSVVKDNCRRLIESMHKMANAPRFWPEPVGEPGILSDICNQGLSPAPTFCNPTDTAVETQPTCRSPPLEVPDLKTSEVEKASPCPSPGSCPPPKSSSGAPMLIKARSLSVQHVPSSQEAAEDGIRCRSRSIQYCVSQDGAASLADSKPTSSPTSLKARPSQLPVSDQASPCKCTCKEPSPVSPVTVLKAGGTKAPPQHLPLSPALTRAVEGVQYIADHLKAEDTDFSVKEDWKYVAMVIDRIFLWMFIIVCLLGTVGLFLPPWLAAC
T3 sequence (P12390 25-500 limits assumed): as the sequence (P12390 25-500 limits assumed) above

T1 sequence (P04757 26-499 limits assumed): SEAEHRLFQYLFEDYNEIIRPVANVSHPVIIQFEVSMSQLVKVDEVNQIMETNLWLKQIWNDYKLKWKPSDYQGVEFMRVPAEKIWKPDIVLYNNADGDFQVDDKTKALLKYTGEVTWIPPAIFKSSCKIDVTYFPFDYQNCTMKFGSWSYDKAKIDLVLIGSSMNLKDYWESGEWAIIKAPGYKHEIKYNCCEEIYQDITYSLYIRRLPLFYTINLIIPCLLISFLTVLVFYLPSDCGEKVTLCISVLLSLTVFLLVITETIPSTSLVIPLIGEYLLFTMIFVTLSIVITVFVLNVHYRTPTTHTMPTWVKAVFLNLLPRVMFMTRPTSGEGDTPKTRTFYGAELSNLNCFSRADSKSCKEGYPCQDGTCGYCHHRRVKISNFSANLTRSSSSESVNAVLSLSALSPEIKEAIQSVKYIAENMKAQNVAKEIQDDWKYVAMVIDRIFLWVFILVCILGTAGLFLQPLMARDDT
T1 sequence (P12390 25-500 limits assumed): as the sequence (P12390 25-500 limits assumed) above

| SMILES | Hill slope, α3β2 (Rat α3β2 nAChR) | Ki [1] [nM] | IC50 (Rat α3β2 nAChR) [nM] | Ratio IC50 α3β2/IC50 α6/α3β2β3 (Rat α3β2 nAChR) | IC50 (Rat α6/α3β2β3 nAChR) [nM] | Hill slope, α6/α3β2β3 (Rat α6/α3β2β3 nAChR) | ACh response, percentage of control, Rα4β2 (α4β2 nAChR) |
| --- | --- | --- | --- | --- | --- | --- | --- |
| CC(C)C[C@@H]1NC(=O)[C@H](CC(N)=O)NC(=O)[C@H](CO)NC(=O)[C@H](Cc2c[nH]cn2)NC(=O)[C@H](CCC(=O)O)NC(=O)[C@H](CC(C)C)NC(=O)[C@H](Cc2c[nH]cn2)NC(=O)[C@@H]2CSSC[C@H](NC(=O)CN)C(=O)N[C@@H](CSSC[C@@H](C(N)=O)NC1=O)C(=O)N[C@@H](CO)C(=O)N[C@@H](CC(N)=O)C(=O)N1CCC[C@H]1C(=O)N[C@@H](C(C)C)C(=O)N2 [MII, reference compound] | 0.75±0.13 | 0.22 | – | – | – | – | – |
| CC(C)C[C@@H]1NC(=O)[C@H](Cc2c[nH]cn2)NC(=O)[C@@H]2CSSC[C@H](NC(=O)CN)C(=O)N[C@@H](CSSC[C@@H](C(N)=O)NC(=O)[C@H](C)NC(=O)[C@H](CC(N)=O)NC(=O)[C@H](CO)NC(=O)[C@H](Cc3c[nH]cn3)NC(=O)[C@H](C)NC1=O)C(=O)N[C@@H](CO)C(=O)N[C@@H](CC(N)=O)C(=O)N1CCC[C@H]1C(=O)N[C@@H](C(C)C)C(=O)N2 [MII[E11A; L15A]] (H-GCCSNPVCHLAHSNAC-NH2; disulfide 2-8, 3-16) | – | – | 50.1 | 121 | 0.415 | – | – |
| CC(C)C[C@@H]1NC(=O)[C@H](C)NC(=O)[C@@H]2CSSC[C@H](NC(=O)CN)C(=O)N[C@@H](CSSC[C@@H](C(N)=O)NC(=O)[C@H](CC(C)C)NC(=O)[C@H](CC(N)=O)NC(=O)[C@H](CO)NC(=O)[C@H](Cc3c[nH]cn3)NC(=O)[C@H](CCC(=O)O)NC1=O)C(=O)N[C@@H](CO)C(=O)N[C@@H](CC(N)=O)C(=O)N1CCC[C@H]1C(=O)N[C@@H](C(C)C)C(=O)N2 [MII[H9A]] (H-GCCSNPVCALEHSNLC-NH2; disulfide 2-8, 3-16) | 0.83±0.08 | 1.1 | 59 | 74.7 | 0.79 | 0.73±0.08 | 105.8±2.4 % of control |
| CC(C)C[C@@H]1NC(=O)[C@H](CC(N)=O)NC(=O)[C@H](CO)NC(=O)[C@H](C)NC(=O)[C@H](CCC(=O)O)NC(=O)[C@H](CC(C)C)NC(=O)[C@H](Cc2c[nH]cn2)NC(=O)[C@@H]2CSSC[C@H](NC(=O)CN)C(=O)N[C@@H](CSSC[C@@H](C(N)=O)NC1=O)C(=O)N[C@@H](CO)C(=O)N[C@@H](CC(N)=O)C(=O)N1CCC[C@H]1C(=O)N[C@@H](C(C)C)C(=O)N2 [MII[H12A]] (H-GCCSNPVCHLEASNLC-NH2; disulfide 2-8, 3-16) | – | – | 4660 | 7.72 | 604 | – | – |
| CC(C)[C@@H]1NC(=O)[C@@H]2CCCN2C(=O)[C@H](CC(N)=O)NC(=O)[C@H](CO)NC(=O)[C@@H]2CSSC[C@@H](C(N)=O)NC(=O)[C@H](C)NC(=O)[C@H](CC(N)=O)NC(=O)[C@H](CO)NC(=O)[C@H](Cc3c[nH]cn3)NC(=O)[C@H](CCC(=O)O)NC(=O)[C@H](C)NC(=O)[C@H](Cc3c[nH]cn3)NC(=O)[C@H](CSSC[C@H](NC(=O)CN)C(=O)N2)NC1=O [MII[L10A; L15A]] (H-GCCSNPVCHAEHSNAC-NH2; disulfide 2-8, 3-16) | – | – | 17.2 | 9.56 | 1.8 | – | – |
| CC(C)C[C@@H]1NC(=O)[C@H](CC(N)=O)NC(=O)[C@H](CO)NC(=O)[C@H](Cc2c[nH]cn2)NC(=O)[C@H](CCC(=O)O)NC(=O)[C@H](C)NC(=O)[C@H](Cc2c[nH]cn2)NC(=O)[C@@H]2CSSC[C@H](NC(=O)CN)C(=O)N[C@@H](CSSC[C@@H](C(N)=O)NC1=O)C(=O)N[C@@H](CO)C(=O)N[C@@H](CC(N)=O)C(=O)N1CCC[C@H]1C(=O)N[C@@H](C(C)C)C(=O)N2 [MII[L10A]] (H-GCCSNPVCHAEHSNLC-NH2; disulfide 2-8, 3-16) | – | – | 1.47 | 3.05 | 0.482 | – | – |
| CC(C)C[C@@H]1NC(=O)[C@H](Cc2c[nH]cn2)NC(=O)[C@@H]2CSSC[C@H](NC(=O)CN)C(=O)N[C@@H](CSSC[C@@H](C(N)=O)NC(=O)[C@H](C)NC(=O)[C@H](CC(N)=O)NC(=O)[C@H](CO)NC(=O)[C@H](Cc3c[nH]cn3)NC(=O)[C@H](CCC(=O)O)NC1=O)C(=O)N[C@@H](CO)C(=O)N[C@@H](CC(N)=O)C(=O)N1CCC[C@H]1C(=O)N[C@@H](C(C)C)C(=O)N2 [MII[L15A]] (H-GCCSNPVCHLEHSNAC-NH2; disulfide 2-8, 3-16) | 0.58±0.08 | 0.3 | 34.1 | 37.2 | 0.917 | 0.75±0.08 | 102.3±5.3 % of control |
| CC(C)C[C@@H]1NC(=O)[C@H](CC(N)=O)NC(=O)[C@H](CO)NC(=O)[C@H](Cc2c[nH]cn2)NC(=O)[C@H](CCC(=O)O)NC(=O)[C@H](CC(C)C)NC(=O)[C@H](Cc2c[nH]cn2)NC(=O)[C@@H]2CSSC[C@H](NC(=O)CN)C(=O)N[C@@H](CSSC[C@@H](C(N)=O)NC1=O)C(=O)N[C@@H](CO)C(=O)N[C@@H](C)C(=O)N1CCC[C@H]1C(=O)N[C@@H](C(C)C)C(=O)N2 [MII[N5A]] (H-GCCSAPVCHLEHSNLC-NH2; disulfide 2-8, 3-16) | – | – | > 10000 | >12.6 | 793 | – | – |
| CC(C)C[C@@H]1NC(=O)[C@H](C)NC(=O)[C@H](CO)NC(=O)[C@H](Cc2c[nH]cn2)NC(=O)[C@H](CCC(=O)O)NC(=O)[C@H](CC(C)C)NC(=O)[C@H](Cc2c[nH]cn2)NC(=O)[C@@H]2CSSC[C@H](NC(=O)CN)C(=O)N[C@@H](CSSC[C@@H](C(N)=O)NC1=O)C(=O)N[C@@H](CO)C(=O)N[C@@H](CC(N)=O)C(=O)N1CCC[C@H]1C(=O)N[C@@H](C(C)C)C(=O)N2 [MII[N14A]] (H-GCCSNPVCHLEHSALC-NH2; disulfide 2-8, 3-16) | – | – | 25.7 | 24.2 | 1.06 | – | – |
| CC(C)C[C@@H]1NC(=O)[C@H](CC(N)=O)NC(=O)[C@H](CO)NC(=O)[C@H](Cc2c[nH]cn2)NC(=O)[C@H](CCC(=O)O)NC(=O)[C@H](CC(C)C)NC(=O)[C@H](Cc2c[nH]cn2)NC(=O)[C@@H]2CSSC[C@H](NC(=O)CN)C(=O)N[C@@H](CSSC[C@@H](C(N)=O)NC1=O)C(=O)N[C@@H](CO)C(=O)N[C@@H](CC(N)=O)C(=O)N[C@@H](C)C(=O)N[C@@H](C(C)C)C(=O)N2 [MII[P6A]] (H-GCCSNAVCHLEHSNLC-NH2; disulfide 2-8, 3-16) | – | – | 4420 | 17.5 | 253 | – | – |
| CC(C)C[C@@H]1NC(=O)[C@H](C)NC(=O)[C@@H]2CSSC[C@H](NC(=O)CN)C(=O)N[C@@H](CSSC[C@@H](C(N)=O)NC(=O)[C@H](CC(C)C)NC(=O)[C@H](CC(N)=O)NC(=O)[C@H](CO)NC(=O)[C@H](Cc3c[nH]cn3)NC(=O)[C@H](CCC(=O)O)NC1=O)C(=O)N[C@@H](C)C(=O)N[C@@H](CC(N)=O)C(=O)N1CCC[C@H]1C(=O)N[C@@H](C(C)C)C(=O)N2 [MII[S4A; H9A]] (H-GCCANPVCALEHSNLC-NH2; disulfide 2-8, 3-16) | – | – | 207 | 105 | 1.97 | – | – |
| CC(C)C[C@@H]1NC(=O)[C@H](CC(N)=O)NC(=O)[C@H](CO)NC(=O)[C@H](Cc2c[nH]cn2)NC(=O)[C@H](CCC(=O)O)NC(=O)[C@H](CC(C)C)NC(=O)[C@H](Cc2c[nH]cn2)NC(=O)[C@@H]2CSSC[C@H](NC(=O)CN)C(=O)N[C@@H](CSSC[C@@H](C(N)=O)NC1=O)C(=O)N[C@@H](C)C(=O)N[C@@H](CC(N)=O)C(=O)N1CCC[C@H]1C(=O)N[C@@H](C(C)C)C(=O)N2 [MII[S4A]] (H-GCCANPVCHLEHSNLC-NH2; disulfide 2-8, 3-16) | – | – | 15.8 | 21.56 | 0.733 | – | – |
| CC(C)C[C@@H]1NC(=O)[C@H](CC(N)=O)NC(=O)[C@H](C)NC(=O)[C@H](Cc2c[nH]cn2)NC(=O)[C@H](CCC(=O)O)NC(=O)[C@H](CC(C)C)NC(=O)[C@H](Cc2c[nH]cn2)NC(=O)[C@@H]2CSSC[C@H](NC(=O)CN)C(=O)N[C@@H](CSSC[C@@H](C(N)=O)NC1=O)C(=O)N[C@@H](CO)C(=O)N[C@@H](CC(N)=O)C(=O)N1CCC[C@H]1C(=O)N[C@@H](C(C)C)C(=O)N2 [MII[S13A]] (H-GCCSNPVCHLEHANLC-NH2; disulfide 2-8, 3-16) | – | – | 2.54 | 3.85 | 0.659 | – | – |
| CC(C)C[C@@H]1NC(=O)[C@H](CC(N)=O)NC(=O)[C@H](CO)NC(=O)[C@H](Cc2c[nH]cn2)NC(=O)[C@H](CCC(=O)O)NC(=O)[C@H](CC(C)C)NC(=O)[C@H](Cc2c[nH]cn2)NC(=O)[C@@H]2CSSC[C@H](NC(=O)CN)C(=O)N[C@@H](CSSC[C@@H](C(N)=O)NC1=O)C(=O)N[C@@H](CO)C(=O)N[C@@H](CC(N)=O)C(=O)N1CCC[C@H]1C(=O)N[C@@H](C)C(=O)N2 [MII[V7A]] (H-GCCSNPACHLEHSNLC-NH2; disulfide 2-8, 3-16) | – | – | 4.46 | 0.421 | 10.6 | – | – |
